Assay: Human HepG2 cell viability assay in 384 well format
Format: toxicity, cell-based
Design: dose 125 nL, time 70.5 hour; cytotoxicity at 70.5 h: concentration not given beside the values
Details: HepG2 cells, read-out: Inhibition

SMILES	cytotoxicity at 70.5 h [%]
C=C(C)CN(CC)C(=O)CN(C)C1CCc2ccccc21 (stereo unspecified)	-2.32
COc1ccc(CNCc2c(C(C)C)nn(C)c2N(C)C)cn1	0.065
Cc1nc(-c2ccsc2)ccc1C(=O)NCCN1CCN(C)CC1	0.295
Cc1nc(-c2ccsc2)ccc1C(=O)NCCCN1CCOCC1	-5.66
CCNC(=O)CN1CCN(Cc2nc3c(F)cccc3n2CC)CC1	0.0175
O=C(CN1CCC(c2ccccc2)C1)NCC(F)(F)F (stereo unspecified)	1.22
O=C(Cc1c(F)cccc1Cl)N1CCC(Nc2cccnn2)CC1	-1.25
CCNc1cc2c(nn1)CCN(C(=O)c1cccc(CSC)c1)C2	-3.17
CCNc1cc2c(nn1)CCN(C(=O)c1ccc(C(N)=O)cc1)C2	20.2
COCC(c1cccc(C(F)(F)F)c1)N(C)C(=O)c1ccoc1 (stereo unspecified)	-3.47
Cc1noc(C)c1CC(=O)N1CCC(Nc2cccnn2)CC1	20.6
Cc1cnn(CCNCc2csc(-c3ccc(C(N)=O)cc3)n2)c1	-1.79
Cc1cc(NC(=O)CN2CCn3c(nnc3C3CC3)C2)on1	-2.62
O=C(CSc1ccccc1F)NS(=O)(=O)c1ccc2c(c1)OCCO2	-0.308
Cc1noc(C)c1CC(=O)N1CCCN(Cc2cscn2)CC1	-2.59
Cc1nc(C)n(CC2CCCCN2Cc2nc(-c3ccco3)no2)n1 (stereo unspecified)	-5.26
Cc1nn(C)c(N2CCOCC2)c1CNCc1cscn1	-9.09
Cc1cc(C)n(CC2CCCN2C(=O)CCc2ccncc2)n1 (stereo unspecified)	-6.13
Cc1nc(CNCc2c(C(C)C)nn(C)c2N2CCOCC2)cs1	-7.63
Cc1nc(C)n(CC2CCCN2Cc2nc(-c3ccsc3)no2)n1 (stereo unspecified)	12.8
Cc1cccc(-c2noc(CN3CCOC(Cn4cccn4)C3)n2)c1 (stereo unspecified)	-11.5
Cc1noc(C)c1CCC(=O)N1CCCN(Cc2cccs2)CC1	-6
CSC(C)C(=O)NCc1ccnc(N2CCN(C)CC2)c1 (stereo unspecified)	-7.04
COc1ccc(CNCC2CNc3cc(C)nn3C2)cn1 (stereo unspecified)	-2.49

SMILES	cytotoxicity at 70.5 h [%]
Cc1csc(N2CCN(C(=O)C3(C#N)CCCCC3)CC2)n1	-9.16
CC(C(=O)NCc1ccc(N2CCN(C)CC2)nc1)n1cccn1 (stereo unspecified)	-6.16
Cc1cc2n(n1)CC(CNCc1ccc(Oc3ccccc3)nc1)CN2 (stereo unspecified)	21.7
Cc1cc2n(n1)CC(CNCc1ccc(-n3cccn3)cc1)CN2 (stereo unspecified)	-0.128
CC(NCc1ccsc1)c1ccc2c(c1)NC(=O)CO2 (stereo unspecified)	-13.9
c1cncc(-c2noc(CN3CCOC(Cn4cccn4)C3)n2)c1 (stereo unspecified)	-4.62
Cc1nnc2n1CCN(Cc1ncc(-c3ccccc3)o1)C2	-9.8
COC(=O)c1cc(C(=O)N2CCC(C)CC2)n(-c2ccccc2)n1	-6.41
Cc1noc(C)c1C(C)C(=O)N1CCCN(Cc2cscn2)CC1 (stereo unspecified)	-9.23
CCc1nccn1C1CCCN(C(=O)c2ccc(NC3CC3)nc2)C1 (stereo unspecified)	-2.23
Cc1cc(C)n(CC2CCCN2C(=O)CCNc2ncccn2)n1 (stereo unspecified)	-4.55
O=C(c1ccc(NC2CC2)nc1)N1CCCC(n2ccnc2)C1 (stereo unspecified)	-12.9
CCc1nnc2n1CCN(Cc1ncc(-c3ccc(Cl)cc3)o1)C2	-7.58
Cc1nnc2n1CCN(Cc1ncc(-c3ccc(F)cc3)o1)C2	-1.84
Cc1ncc(CN2CCCN(Cc3noc(C4CC4)n3)CC2)s1	23.6
CC(C)OCCN1CCC(C(=O)c2cc(F)ccc2F)CC1	25
CCOCCN1CCC(C(=O)c2cc(F)ccc2F)CC1	17.7
CCc1ccc(C(=O)N2CCN(CC(O)CC)CC2)o1 (stereo unspecified)	46.5
Cc1nc(CN2CCCC(NCc3cnc(C(C)(C)C)s3)C2)no1 (stereo unspecified)	2.91
O=C(CN1CCCC1c1noc(C2CC2)n1)N1CCc2ccccc21 (stereo unspecified)	-7.43
CCc1ncc2c(n1)CN(Cc1cccc(OCC(N)=O)c1)CC2	1.32
CN(C)CC(=O)N1CCN(CC(O)c2ccc(F)cc2)CC1 (stereo unspecified)	-1.76
C=C(C)CN1CCC(C(=O)c2cc(F)ccc2F)CC1	0.664
CC(C)c1nc(C2CCCN(C(=O)CCn3ccccc3=O)C2)no1 (stereo unspecified)	22.5

SMILES	cytotoxicity at 70.5 h [%]
Cc1nc(C2CCCN2CC(=O)N2CCc3ccccc32)no1 (stereo unspecified)	21.3
CCc1noc(CNCCn2cc(C)cn2)n1	-3.69
CCOc1ccccc1OC1CCN(C(=O)c2[nH]nc(C)c2Br)CC1	0.076
CCOc1ccccc1N1CCN(C(=O)c2cc[nH]n2)CC1	0.935
Cc1cc(C)c(CNC(=O)NCc2ccc(F)c(C)c2)c(=O)[nH]1	-0.902
Cc1cc(C)c(CNC(=O)NCc2ccncc2)c(=O)[nH]1	-0.477
O=C(c1ccccc1)N1CCN(CC(O)c2ccc(F)cc2)CC1 (stereo unspecified)	-11
O=C(Cc1ccc(F)cc1)N1CCN(CC(O)c2ccccc2)CC1 (stereo unspecified)	-4.51
NC(=O)C1CCN(C(=O)NCc2cccnc2OCC(F)(F)F)C1 (stereo unspecified)	-1.73
c1ccc(-c2nc(CNCCn3cccn3)cs2)nc1	19.2
CCc1ccc(C(=O)N2CCN(CC(O)c3ccccc3)CC2)o1 (stereo unspecified)	1.67
Cc1nc(C2CCCN(C(=O)CCn3ccccc3=O)C2)no1 (stereo unspecified)	-3.24
CCc1nc(C2CCCN2CCC(=O)N2CCc3ccccc32)no1 (stereo unspecified)	20.5
Cc1nc(C2CCCN(C(=O)c3cc4c(s3)CCCC4)C2)no1 (stereo unspecified)	5.35
CCc1nc2n(n1)CC(NCC(=O)Nc1oc(C)c(C)c1C#N)CC2 (stereo unspecified)	7.08
CN1N=C(C(=O)Nc2cc(F)ccc2OCC2CCCO2)CCC1=O (stereo unspecified)	-20.2
Nc1cc2c(nn1)CCN(C(=O)c1cccc3c1OCCO3)C2	-14.7
CN(CC1(O)CCCCC1)C1CCCN(Cc2noc(C3CC3)n2)C1 (stereo unspecified)	16.9
Cc1cnn(C2CN(CC(=O)NCc3ccccn3)C2)c1	16.5
Cc1cc(CN(C)C2CCCN(Cc3noc(C4CC4)n3)C2)no1 (stereo unspecified)	11.8
CCOc1nnc(CN2CCC(N(C)Cc3noc(C)n3)C2)s1 (stereo unspecified)	-8.7
CCc1c(C(=O)N2CCN(c3ncccn3)CC2)cnn1C(C)(C)C	-2.98
Cc1ccc(CNC(=O)Nc2nnc(C)s2)cn1	-5.53
CCc1ccc(CNC(=O)N2CCN(Cc3cc(C)no3)CC2)s1	19.6

SMILES	cytotoxicity at 70.5 h [%]
Cc1cc(CN2CCN(C(=O)NCc3nc(C)cs3)CC2)on1	-11.7
O=C(NCCn1ccnc1)c1ccn(-c2cccc(F)c2)n1	12.4
O=C(CCNc1ncccn1)NCCOc1ccc2c(c1)CCC2	-16.3
COc1cc(CCC(=O)NCC2CCCN2C)ccc1OCC(F)(F)F (stereo unspecified)	-7.43
COc1ccc(CN(C)C(=O)NCc2c(C)cc(C)[nH]c2=O)cc1	-4.65
CCc1ncncc1C(=O)N1CCN(Cc2c(C)noc2C)CC1	-11.6
CCN1CCN(C(=O)CCc2c(C)noc2Cl)CC1	-13.8
Cc1nnc2n1CCN(C(=O)c1cc(C)n(-c3ccccn3)c1C)C2	-14
Cc1cccc(-n2c(C)cc(C(=O)N3CCn4c(C)nnc4C3)c2C)c1	-1.57
Cc1noc(Cl)c1CCC(=O)N1CCC(CC(N)=O)CC1	-4.77
CCc1c(C(=O)N2CCN(CC(N)=O)CC2)cnn1C(C)(C)C	-2.02
Cn1cnc2c1CCN(Cc1nc(COc3ccc(F)cc3)no1)C2	10.6
Cc1nc(C)n(CC2CCCN2CC(=O)Nc2cc(C(C)C)no2)n1 (stereo unspecified)	-13.1
Cc1nc2n(n1)CC(NCc1cc(Cl)c3c(c1)OCCCO3)CC2 (stereo unspecified)	-6.52
CN(Cc1ccco1)C(=O)[C@H]1CSCN1C(=O)OC(C)(C)C	-1.49
Cc1nn(C)c(C)c1C1CCCN1C(=O)CCc1cscn1 (stereo unspecified)	-6.08
COc1cc(CNC2CCc3nc(C(C)C)nn3C2)cc2c1OCO2 (stereo unspecified)	-13.1
CSCC(=O)N1CCCC(n2ccnc2C(C)C)C1 (stereo unspecified)	-7.04
CC(C)c1nccn1C1CCCN(C(=O)c2cnn(C)c2C2CC2)C1 (stereo unspecified)	5.54
CN(CCCOc1ccccc1)C(=O)CN1CCc2cncnc2C1	8.28
O=C(CN1CCc2cncnc2C1)NCCOc1ccccc1	-5.53
O=C(CC1CCCO1)NCc1ccccc1Cn1cncn1 (stereo unspecified)	-3.75
CCN(CC)c1ccc(C(=O)N(C)Cc2c(C)noc2C)cn1	-3.66
N#Cc1ccc(CN2CCC(c3ccnn3CCO)CC2)cc1	-2.2

SMILES	cytotoxicity at 70.5 h [%]
Cc1noc(C)c1CNC(=O)c1ccc(NC2CC2)nc1	5.69
CCc1nc(C(=O)N2CCCC2)nn1-c1ccccc1Cl	10.2
Cc1nccc(-c2cccc(NCC(=O)N3CCCCCCC3)c2)n1	17.3
Cc1cc(C)n(CC2CN(CCOc3cccc(C#N)c3)CCO2)n1 (stereo unspecified)	0.061
Cc1cc(C)c(CNC(=O)NCC(O)c2cccc(F)c2)c(=O)[nH]1 (stereo unspecified)	-3.53
CCc1ncc(CN(C)C(=O)Nc2cccnc2N2CCCC2)s1	0.712
CC(C)c1nccn1C1CCCN(C(=O)c2cnc[nH]2)C1 (stereo unspecified)	3.72
O=C1COc2ccc(C(=O)NS(=O)(=O)c3ccc(F)cc3F)cc2N1	-0.102
CC(C)c1n[nH]c(C2CN(C(=O)c3cccc4cn[nH]c34)CCO2)n1 (stereo unspecified)	3.42
CC(C)c1n[nH]c(C2CN(C(=O)c3csnn3)CCO2)n1 (stereo unspecified)	-3.07
CC(OCC1CC1)C(=O)N1CCCN(c2ncccc2C#N)CC1 (stereo unspecified)	15.5
COc1ccc(-c2noc(CNC(C)Cn3cccn3)n2)c(OC)c1 (stereo unspecified)	22.3
Cn1ccnc1CN1CCCN(C(=O)c2ccc3c(c2)COC3)CC1	5.68
O=C(NCCC1=CCCCC1)NCc1nnc2n1CCC2	-10.8
O=C(NCc1cc[nH]n1)N1CCN(c2ccccc2Cl)CC1	6.1
O=C(NCCN1CCCCC1)c1scnc1Cl	-8.74
CN(CCc1ccc(F)cc1)Cc1nc2c(cnn2C)c(=O)[nH]1	11.7
CC(C(=O)N1CCCN(c2ncccc2C#N)CC1)n1cccn1 (stereo unspecified)	-9.79
CN(CC(=O)N1CCCC1c1cnn(C)c1)c1ccc(Cl)cn1 (stereo unspecified)	3.73
CC(C)c1nn(C)c(N(C)C)c1CNCc1cccc(CN(C)C)c1	0.875
